Our source for the TGI and GI50 values is PubChem BioAssay (NCI).

Among the test systems are SF-539 CNS; SNB-75 CNS; LOX IMVI melanoma; SK-MEL-28 melanoma; A549 NSCLC; MDA-MB-231 breast; UACC-257 melanoma; NCI-H460 lung.
Common to all, as to assay: NCI tumour cell line growth inhibition, 48 h

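In this assay, cells in 96-well plates receive the compound at five concentrations for 48 hours. Endpoints are linearly interpolated between the surrounding concentrations. The concentration for 50% growth inhibition is given as GI50. Definition used: TGI = concentration required for complete inhibition of growth.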 Some results are limits rather than exact numbers.

For `NCCN1C(=O)c2ccccc2C1(O)c1ccc(Cl)cc1` (configuration not stated), the TGI was 43.2 µM in the assay on SF-539 CNS; 97.6 µM in the assay with SNB-75 CNS; 32.8 µM in the assay on LOX IMVI melanoma; 33.2 µM in the assay on SK-MEL-28 melanoma; 67.3 µM with A549 NSCLC; 34.7 µM with MDA-MB-231 breast. Moreover, the TGI in the assay on UACC-257 melanoma worked out at 31.8 µM; in the assay with NCI-H460 lung, 30.4 µM.

Regarding `O=C(COc1ccc(-c2nc3cc(Cl)c(Cl)cc3[nH]2)cc1)N=Nc1c(O)[nH]c2ccccc12`, the GI50 with SF-539 CNS was 2.65 µM; in the assay on SNB-75 CNS, 1.61 µM; with LOX IMVI melanoma it was 1.02 µM; with MDA-MB-231 breast, 1.09 µM. Moreover, the TGI in the assay with SF-539 CNS came out at 24.2 µM; in the assay with SNB-75 CNS it was 3.68 µM; in the assay with LOX IMVI melanoma, 2.64 µM; in the assay with MDA-MB-231 breast, 3.43 µM.

`Cc1ccc(C)c2c(N=Nc3ccccc3[N+](=O)[O-])c(O)[nH]c12`: the TGI with SF-539 CNS, in the assay with SNB-75 CNS, in the assay with LOX IMVI melanoma, with SK-MEL-28 melanoma, in the assay with A549 NSCLC and in the assay on MDA-MB-231 breast was greater than 100 µM in each case. Besides, the TGI with UACC-257 melanoma and in the assay on NCI-H460 lung was greater than 100 µM throughout.

Take `Cc1ccc(C(=O)N=Nc2c(O)[nH]c3ccc(Cl)cc23)cc1`: the GI50 is greater than 50 µM with SF-539 CNS; 16.6 µM in the assay on SNB-75 CNS; 31.2 µM in the assay with LOX IMVI melanoma; 41.8 µM with SK-MEL-28 melanoma; 22.8 µM in the assay with A549 NSCLC; 18.7 µM in the assay on MDA-MB-231 breast. Besides, the GI50 in the assay with UACC-257 melanoma was greater than 50 µM; with NCI-H460 lung, 15.1 µM. Moreover, the TGI with SF-539 CNS, in the assay on SNB-75 CNS, in the assay on LOX IMVI melanoma, in the assay on SK-MEL-28 melanoma, in the assay on A549 NSCLC and in the assay on MDA-MB-231 breast was greater than 50 µM throughout. The TGI in the assay on UACC-257 melanoma and in the assay with NCI-H460 lung was greater than 50 µM each time.

On to `CCCCN1CCN(c2ccc3nc(-c4ccc5nc(-c6ccc(OCC)c(OCC)c6)[nH]c5c4)[nH]c3c2)CC1`, for which the GI50 in the assay on SF-539 CNS was 1.26 µM; with SNB-75 CNS, 0.65 µM; in the assay on SK-MEL-28 melanoma, 1.01 µM; with MDA-MB-231 breast, 1.69 µM; in the assay on UACC-257 melanoma, 1.21 µM; in the assay on NCI-H460 lung, 0.533 µM. For the same compound, the TGI in the assay on SF-539 CNS amounted to 2.56 µM; in the assay on SNB-75 CNS, 2.01 µM; in the assay on SK-MEL-28 melanoma, 2.22 µM; in the assay on MDA-MB-231 breast, 3.28 µM; with UACC-257 melanoma, 10.5 µM; with NCI-H460 lung, 1.86 µM.

Regarding `COC(=O)/C(=C\c1c(-c2ccccc2)[nH]c2ccccc12)S(C)(=O)=O`, the GI50 in the assay with SF-539 CNS is 3.11 µM; in the assay on SNB-75 CNS it was 2.26 µM; in the assay with LOX IMVI melanoma, 5.07 µM; in the assay with SK-MEL-28 melanoma, 6.04 µM; with A549 NSCLC it was 5.26 µM; with MDA-MB-231 breast, 2.39 µM. The GI50 with UACC-257 melanoma was 11.2 µM; in the assay on NCI-H460 lung it was 3.54 µM. Besides, the TGI was found to be 11.5 µM in the assay with SF-539 CNS; 9.61 µM in the assay on SNB-75 CNS; 17.6 µM with LOX IMVI melanoma; 21.9 µM with SK-MEL-28 melanoma; 98.4 µM with A549 NSCLC; 17.7 µM in the assay on MDA-MB-231 breast. Moreover, the TGI in the assay with UACC-257 melanoma was determined as 25.9 µM; in the assay on NCI-H460 lung it was 14.2 µM.

`CNC(=O)c1cc2c(Oc3ccc(NC(=S)NC(=O)Cc4ccccc4)cc3F)ccnc2cc1OC`: the GI50 was 0.549 µM in the assay with SF-539 CNS; 0.183 µM in the assay with SNB-75 CNS; 4.13 µM in the assay with LOX IMVI melanoma; greater than 100 µM with SK-MEL-28 melanoma; greater than 48.6 µM with A549 NSCLC; 3.87 µM in the assay with MDA-MB-231 breast. Further, the GI50 with UACC-257 melanoma was 9.5 µM; in the assay with NCI-H460 lung it was greater than 100 µM. Besides, the TGI in the assay with SF-539 CNS is greater than 30.3 µM; with SNB-75 CNS, 4.68 µM; in the assay on LOX IMVI melanoma, greater than 100 µM; in the assay on SK-MEL-28 melanoma, greater than 100 µM; in the assay with A549 NSCLC, greater than 100 µM; in the assay with MDA-MB-231 breast, greater than 100 µM. Also, the TGI in the assay with UACC-257 melanoma and with NCI-H460 lung was greater than 100 µM throughout.

Take `CC1(C)N=C(N)N=C(N)N1c1ccc(Cl)c(Cl)c1`: the GI50 in the assay on SF-539 CNS was 0.201 µM; with SNB-75 CNS it was 18.7 µM; in the assay on LOX IMVI melanoma, 0.0879 µM; in the assay with SK-MEL-28 melanoma, 11.7 µM; in the assay on A549 NSCLC it was 0.152 µM; in the assay with MDA-MB-231 breast it was greater than 100 µM. Moreover, the GI50 in the assay on UACC-257 melanoma is greater than 41.6 µM; with NCI-H460 lung it was 0.0919 µM. In addition, the TGI with SF-539 CNS was greater than 54 µM; in the assay with SNB-75 CNS it was greater than 81.3 µM; with LOX IMVI melanoma it was greater than 100 µM; in the assay with SK-MEL-28 melanoma, greater than 100 µM; in the assay on A549 NSCLC, greater than 100 µM; in the assay on MDA-MB-231 breast it was greater than 100 µM. The TGI in the assay on UACC-257 melanoma and in the assay with NCI-H460 lung was greater than 100 µM throughout.

As for `Cc1cc2c(=O)[nH]c(N)nc2nc1C`, the TGI in the assay with SNB-75 CNS, in the assay with LOX IMVI melanoma, in the assay on SK-MEL-28 melanoma, in the assay with A549 NSCLC, in the assay on MDA-MB-231 breast and with UACC-257 melanoma was greater than 100 µM throughout. In the assay with NCI-H460 lung, this compound came in with a TGI greater than 100 µM.

As for `CN(C)CCNc1nc2ccccc2c2occc12`, the GI50 is 35.9 µM in the assay on SF-539 CNS; 11.8 µM in the assay on SNB-75 CNS; 19.1 µM with LOX IMVI melanoma; 27 µM in the assay with SK-MEL-28 melanoma; 44.7 µM in the assay on A549 NSCLC; 23.7 µM in the assay on MDA-MB-231 breast. Besides, the GI50 in the assay on UACC-257 melanoma is 28.9 µM; in the assay with NCI-H460 lung, 31.7 µM. The TGI was 83.6 µM with SF-539 CNS; greater than 100 µM with SNB-75 CNS; 42.8 µM with LOX IMVI melanoma; greater than 100 µM in the assay with SK-MEL-28 melanoma; greater than 100 µM with A549 NSCLC; 77.6 µM in the assay on MDA-MB-231 breast. Besides, the TGI in the assay on UACC-257 melanoma is 68.2 µM; in the assay with NCI-H460 lung, greater than 100 µM.

On to `N=C(N)SCc1ccc([N+](=O)[O-])cc1[N+](=O)[O-]`, for which the GI50 is 11 µM with SF-539 CNS; 19.6 µM in the assay with SNB-75 CNS; 8.66 µM in the assay on LOX IMVI melanoma; 21.6 µM in the assay with A549 NSCLC; 12 µM in the assay on MDA-MB-231 breast; 4.44 µM with UACC-257 melanoma. Also, the GI50 in the assay on NCI-H460 lung was 12.7 µM. Further, the TGI in the assay on SF-539 CNS is 25.7 µM; in the assay on SNB-75 CNS, 50.5 µM; with LOX IMVI melanoma, 25 µM; in the assay on A549 NSCLC it was 66.4 µM; in the assay on MDA-MB-231 breast, 36.6 µM; with UACC-257 melanoma, 17 µM. Further, the TGI in the assay on NCI-H460 lung stood at 32.7 µM.
